{"source": "patent US12514832B2", "about": "“Methods for using low-dose colchicine after myocardial infarction” (INSTITUT DE CARDIOLOGIE DE MONTREAL, priority 2019, dated 2026)", "key": {"[1]": {"tested_on": "white blood cell count", "experiment": "COLCOT white blood cell counts (total, lymphocytes, neutrophils)", "format": "in vivo, human", "settings": "for Total white blood cell count, geometric mean / Total white blood cell count, Adjusted GM percent change: N=992", "description": "Additional prespecified exploratory end points included the change from baseline to 6 months in the high-sensitivity C-reactive protein level and the change from baseline to 12 months in the white-cell count. The C-reactive protein biomarker substudy was implemented after a protocol amendment and was optional for sites and for patients; 34 sites chose to participate in this substudy.\nThe analysis of the primary end point was repeated in the per-protocol population (i.e., patients without major protocol deviations). Secondary and exploratory end points expressed as time to event were analyzed similarly. The changes from baseline to follow-up were analyzed with the use of an analysis of covariance model with adjustment for baseline value, and estimates of treatment effect are presented with 95% confidence intervals.\nIn Table 8, the placebo-adjusted geometric mean percent change was obtained by exponentiating the adjusted mean difference between groups from the analysis of covariance model (based on log-transformed data), then subtracting 1 and multiplying by 100.\nIn addition, the C-reactive protein biomarker sub-study was implemented following a protocol amendment and was optional for sites and for patients; 34 sites accepted to participate in this substudy. There were 213 and 208 patients who provided blood samples at baseline and 6 months, respectively. Paired baseline and 6-month hs-CRP values were available in 207 patients. Clinically available white blood cell counts were obtained from 2598 patients at baseline and 1998 patients at 12 months, and paired baseline and 12-month values were available in 1972 patients. Statistical analysis was conducted on the patients who provided both baseline and follow-up data and as these were exploratory analyses, no missing data was imputed.\nInformation about white-cell counts at baseline and at the 12-month follow-up were also available for a relatively small subgroup of 1972 patients. The adjusted geometric mean percent changes from baseline to 1 year in the total white-cell count were −18.8% in the colchicine group and −19.0% in the placebo group, with no significant difference between groups (0.3% percentage points; 95% CI, −2.2 to 2.7)."}, "[2]": {"tested_on": "rs6916345 (LINC01108/JARID2, chromosome 6); rs10128117 (SEPHS1, chromosome 10)", "settings": "for HR, gastrointestinal disorders / coef, gastrointestinal disorders / Coefficient, genetic association with gastrointestinal disorders / HR (hazard ratio), genetic association with gastrointestinal disorders: colchicine treatment arm"}, "[3]": {"settings": "baseline to 12 months, colchicine vs placebo"}, "[4]": {"settings": "colchicine arm, males + females, on-treatment pgx population"}, "[5]": {"settings": "rs535968 effect allele C vs T, males + females"}, "[6]": {"settings": "rs615497 effect allele G vs A, males + females"}, "[7]": {"settings": "rs825610 effect allele C vs T, males + females"}, "[8]": {"settings": "rs2253619 chr 10, EA T vs NEA C"}, "[9]": {"settings": "rs2253619 effect allele T vs C, males + females"}, "[10]": {"settings": "rs2476986 effect allele T vs G, males + females"}, "[11]": {"settings": "rs2783648 effect allele A vs T, males + females"}}, "note": "Where two headings read alike, the source gives them in different places.", "data": [{"smiles": "COc1cc2c(c(OC)c1OC)-c1ccc(OC)c(=O)cc1[C@@H](NC(C)=O)CC2", "note": "[Colchicine, colchicine]", "values": [{"measurement": "Circulating lymphocytes, geometric mean", "setting": "[1]; at 12 months", "value": "1.83 10^3/μL"}, {"measurement": "Circulating neutrophils, geometric mean", "setting": "[1]; at 12 months", "value": "3.95 10^3/μL"}, {"measurement": "Total white blood cell count, geometric mean", "setting": "[1]; at 12 months", "value": "6.95 10^3/μL"}, {"measurement": "Circulating lymphocytes, geometric mean", "setting": "[1]; at Randomization (baseline)", "value": "1.79 10^3/μL"}, {"measurement": "Circulating neutrophils, geometric mean", "setting": "[1]; at Randomization (baseline)", "value": "5.45 10^3/μL"}, {"measurement": "Total white blood cell count, geometric mean", "setting": "[1]; at Randomization (baseline)", "value": "8.54 10^3/μL"}, {"measurement": "Circulating lymphocytes, Adjusted GM percent change", "setting": "[1]; baseline to 12 months", "value": 1.80, "unit": "%"}, {"measurement": "Circulating neutrophils, Adjusted GM percent change", "setting": "[1]; baseline to 12 months", "value": "−27.63", "unit": "%"}, {"measurement": "Total white blood cell count, Adjusted GM percent change", "setting": "[1]; baseline to 12 months", "value": "−18.81", "unit": "%"}, {"measurement": "Total white blood cell count, Adjusted GM percent change", "setting": "[1]; baseline to 12 months, listed as colchicine", "value": "−18.8", "unit": "%"}, {"measurement": "Circulating lymphocytes, Placebo-adjusted GM percent change", "setting": "[1]; [3]", "value": 1.10, "unit": "%"}, {"measurement": "Circulating neutrophils, Placebo-adjusted GM percent change", "setting": "[1]; [3]", "value": 0.45, "unit": "%"}, {"measurement": "Total white blood cell count, Placebo-adjusted GM percent change", "setting": "[1]; [3]", "value": 0.26, "unit": "%"}, {"measurement": "Total white blood cell count, Placebo-adjusted GM percent change", "setting": "[1]; baseline to 12 months, colchicine vs placebo, listed as colchicine", "value": 0.3, "unit": "%"}, {"measurement": "Gastrointestinal disorders, hr per effect allele, rs857414 (G vs T)", "setting": "[2]; [4]", "value": 0.6}, {"measurement": "Gastrointestinal disorders, hr per effect allele, rs2327827 (G vs A)", "setting": "[2]; [4]", "value": 0.5}, {"measurement": "Gastrointestinal disorders, hr per effect allele, rs4620126 (G vs A)", "setting": "[2]; [4]", "value": 0.6}, {"measurement": "Gastrointestinal disorders, hr per effect allele, rs6459368 (A vs G)", "setting": "[2]; [4]", "value": 0.5}, {"measurement": "Gastrointestinal disorders, hr per effect allele, rs6903188 (G vs A)", "setting": "[2]; [4]", "value": 0.6}, {"measurement": "Gastrointestinal disorders, hr per effect allele, rs6918045 (T vs C)", "setting": "[2]; [4]", "value": 0.6}, {"measurement": "Gastrointestinal disorders, hr per effect allele, rs6920905 (C vs T)", "setting": "[2]; [4]", "value": 0.5}, {"measurement": "Gastrointestinal disorders, hr per effect allele, rs7747013 (G vs A)", "setting": "[2]; [4]", "value": 0.5}, {"measurement": "Gastrointestinal disorders, hr per effect allele, rs7751771 (C vs T)", "setting": "[2]; [4]", "value": 0.5}, {"measurement": "Gastrointestinal disorders, hr per effect allele, rs7764937 (C vs G)", "setting": "[2]; [4]", "value": 0.5}, {"measurement": "Gastrointestinal disorders, hr per effect allele, rs9349955 (T vs C)", "setting": "[2]; [4]", "value": 0.5}, {"measurement": "Gastrointestinal disorders, hr per effect allele, rs9358042 (T vs C)", "setting": "[2]; [4]", "value": 0.6}, {"measurement": "Gastrointestinal disorders, hr per effect allele, rs9358044 (T vs A)", "setting": "[2]; [4]", "value": 0.5}, {"measurement": "Gastrointestinal disorders, hr per effect allele, rs9370772 (T vs C)", "setting": "[2]; [4]", "value": 0.6}, {"measurement": "Gastrointestinal disorders, hr per effect allele, rs9382993 (C vs T)", "setting": "[2]; [4]", "value": 0.5}, {"measurement": "Gastrointestinal disorders, hr per effect allele, rs9464702 (G vs A)", "setting": "[2]; [4]", "value": 0.6}, {"measurement": "Gastrointestinal disorders, hr per effect allele, rs9476615 (T vs C)", "setting": "[2]; [4]", "value": 0.6}, {"measurement": "Gastrointestinal disorders, hr per effect allele, rs9476616 (G vs C)", "setting": "[2]; [4]", "value": 0.5}, {"measurement": "Gastrointestinal disorders, hr per effect allele, rs12210439 (A vs G)", "setting": "[2]; [4]", "value": 0.6}, {"measurement": "Gastrointestinal disorders, hr per effect allele, rs70993041 (TAA vs T)", "setting": "[2]; [4]", "value": 0.5}, {"measurement": "times more likely to have reported gastrointestinal disorders with colchicine than with placebo", "setting": "[2]; genotype A/A at rs6916345", "value": 2.4, "unit": "times"}, {"measurement": "less likely to have reported gastrointestinal disorders with colchicine than with placebo", "setting": "[2]; genotype G/G at rs6916345", "value": 57, "unit": "%"}, {"measurement": "times more likely to have reported gastrointestinal disorders with colchicine than with placebo", "setting": "[2]; genotype T/A at rs10128117", "value": 3.7, "unit": "times"}, {"measurement": "HR, gastrointestinal disorders", "setting": "[2]; [5]", "value": 2.3}, {"measurement": "coef, gastrointestinal disorders", "setting": "[2]; [5]", "value": 0.8496}, {"measurement": "HR, gastrointestinal disorders", "setting": "[2]; [6]", "value": 2.4}, {"measurement": "coef, gastrointestinal disorders", "setting": "[2]; [6]", "value": 0.8683}, {"measurement": "HR, gastrointestinal disorders", "setting": "[2]; [7]", "value": 2.4}, {"measurement": "coef, gastrointestinal disorders", "setting": "[2]; [7]", "value": 0.8604}, {"measurement": "Coefficient, genetic association with gastrointestinal disorders", "setting": "[2]; [8]", "value": 0.921}, {"measurement": "HR (hazard ratio), genetic association with gastrointestinal disorders", "setting": "[2]; [8]", "value": 2.51}, {"measurement": "HR, gastrointestinal disorders", "setting": "[2]; [9]", "value": 2.5}, {"measurement": "coef, gastrointestinal disorders", "setting": "[2]; [9]", "value": 0.9205}, {"measurement": "Coefficient, genetic association with gastrointestinal disorders", "setting": "[2]; rs2327827 chr 6, EA G vs NEA A", "value": "−0.620"}, {"measurement": "HR (hazard ratio), genetic association with gastrointestinal disorders", "setting": "[2]; rs2327827 chr 6, EA G vs NEA A", "value": 0.54}, {"measurement": "HR, gastrointestinal disorders", "setting": "[2]; [10]", "value": 2.4}, {"measurement": "coef, gastrointestinal disorders", "setting": "[2]; [10]", "value": 0.8717}, {"measurement": "HR, gastrointestinal disorders", "setting": "[2]; [11]", "value": 2.4}, {"measurement": "coef, gastrointestinal disorders", "setting": "[2]; [11]", "value": 0.8625}, {"measurement": "Coefficient, genetic association with gastrointestinal disorders", "setting": "[2]; rs6459368 chr 6, EA A vs NEA G", "value": "−0.602"}, {"measurement": "HR (hazard ratio), genetic association with gastrointestinal disorders", "setting": "[2]; rs6459368 chr 6, EA A vs NEA G", "value": 0.55}, {"measurement": "Coefficient, genetic association with gastrointestinal disorders", "setting": "[2]; rs6903188 chr 6, EA G vs NEA A", "value": "−0.598"}, {"measurement": "HR (hazard ratio), genetic association with gastrointestinal disorders", "setting": "[2]; rs6903188 chr 6, EA G vs NEA A", "value": 0.55}, {"measurement": "Coefficient, genetic association with gastrointestinal disorders", "setting": "[2]; rs6916345 chr 6, EA G vs NEA A", "value": "−0.639"}, {"measurement": "HR (hazard ratio), genetic association with gastrointestinal disorders", "setting": "[2]; rs6916345 chr 6, EA G vs NEA A", "value": 0.53}, {"measurement": "Coefficient, genetic association with gastrointestinal disorders", "setting": "[2]; rs6918045 chr 6, EA T vs NEA C", "value": "−0.598"}, {"measurement": "HR (hazard ratio), genetic association with gastrointestinal disorders", "setting": "[2]; rs6918045 chr 6, EA T vs NEA C", "value": 0.55}, {"measurement": "Coefficient, genetic association with gastrointestinal disorders", "setting": "[2]; rs6920905 chr 6, EA C vs NEA T", "value": "−0.628"}, {"measurement": "HR (hazard ratio), genetic association with gastrointestinal disorders", "setting": "[2]; rs6920905 chr 6, EA C vs NEA T", "value": 0.53}, {"measurement": "Coefficient, genetic association with gastrointestinal disorders", "setting": "[2]; rs7747013 chr 6, EA G vs NEA A", "value": "−0.600"}, {"measurement": "HR (hazard ratio), genetic association with gastrointestinal disorders", "setting": "[2]; rs7747013 chr 6, EA G vs NEA A", "value": 0.55}, {"measurement": "Coefficient, genetic association with gastrointestinal disorders", "setting": "[2]; rs7751771 chr 6, EA C vs NEA T", "value": "−0.598"}, {"measurement": "HR (hazard ratio), genetic association with gastrointestinal disorders", "setting": "[2]; rs7751771 chr 6, EA C vs NEA T", "value": 0.55}, {"measurement": "Coefficient, genetic association with gastrointestinal disorders", "setting": "[2]; rs7764937 chr 6, EA C vs NEA G", "value": "−0.599"}]}]}
